These results are taken from patent publication US20230063238A1, “IMMUNOMODULATORS” (Bristol-Myers Squibb Company, priority 2020, published 2023).

Starred links: 1 amine or outer side, 2 acyl side, 3 side chain; linkers in the order of their positions; H or OH if unused. Positions of bridges follow the written chain, without caps; N, C: chain ends. Non-standard residues stand in square brackets, D forms with d. Residues, ends and D or L forms follow the SMILES beside them. *: point of attachment. Trp(1-CH2CO2Me) = COC(=O)Cn1cc(C[C@H](N)C(=O)O)c2ccccc21; Trp(1-CH2COOH) = N[C@@H](Cc1cn(CC(=O)O)c2ccccc12)C(=O)O; Hyp = O=C(O)[C@@H]1C[C@@H](O)CN1; X8 = O=C(Nc1cc(F)cc(F)c1)C(=O)*; Methoxyoxalyl = COC(=O)C(=O)*; Oxalyl = O=C(C(=O)[*:2])[*:1]; X3 = O=C(NCc1ccc(F)cc1)C(=O)*; NMeNle = CCCC[C@H](NC)C(=O)O; X10 = Cc1cc(NC(=O)C(=O)*)no1; X2 = CCc1nnc(NC(=O)C(=O)*)s1; X1 = O=C(Oc1ccccc1)C(=O)*; NMeA = CN[C@@H](C)C(=O)O; Dab = NCC[C@H](N)C(=O)O; Dap = NC[C@H](N)C(=O)O

For this assay, the target named is T1, PD-1/PD-L1 (Homo sapiens, UniProt Q9NZQ7).
T1 construct: TVMV protease site linker (C); made in house; host or cells: HEK293T cells
T1 sequence (Q9NZQ7 18-239): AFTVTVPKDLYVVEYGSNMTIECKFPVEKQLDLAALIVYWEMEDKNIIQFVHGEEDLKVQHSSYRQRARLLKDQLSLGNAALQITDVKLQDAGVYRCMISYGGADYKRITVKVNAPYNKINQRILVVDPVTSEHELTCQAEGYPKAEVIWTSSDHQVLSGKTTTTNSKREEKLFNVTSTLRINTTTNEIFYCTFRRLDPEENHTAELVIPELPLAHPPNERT
The assay is described as follows: PD-1/PD-L1 Homogenous Time-Resolved Fluorescence (HTRF) binding assay. The note with it: PD-L1-His 10 nM final, PD-1-Ig 20 nM final; inhibitors pre-incubated with PD-L1-His for 15 m. The text has this:
The ability of the compounds of formula (I) to bind to PD-L1 was investigated using a PD-1/PD-L1 Homogenous Time-Resolved Fluorescence (HTRF) binding assay.
Homogenous Time-Resolved Fluorescence (HTRF) Binding Assay
The interaction of PD-1 and PD-L1 can be assessed using soluble, purified preparations of the extracellular domains of the two proteins. The PD-1 and PD-L1 protein extracellular domains were expressed as fusion proteins with detection tags, for PD-1, the tag was the Fc portion of Immunoglobulin (PD-1-Ig) and for PD-L1 it was the 6 histidine motif (PD-L1-His). All binding studies were performed in an HTRF assay buffer consisting of dPBS supplemented with 0.1% […] bovine serum albumin and 0.05% (v/v) Tween-20. For the h/PD-L1-His binding assay, inhibitors were pre-incubated with PD-L1-His (10 nM final) for 15 m in 4 μl of assay buffer, followed by addition of PD-1-Ig (20 nM final) in 1 μl of assay buffer and further incubation for 15m. HTRF detection was achieved using europium crypate-labeled anti-Ig (1 nM final) and allophycocyanin (APC) labeled anti-His (20 nM final). Antibodies were diluted in HTRF detection buffer and 5 μl was dispensed on top of the binding reaction. The reaction mixture was allowed to equilibrate for 30 minutes and the resulting signal (665 nm/620 nm ratio) was obtained using an EnVision fluorometer. Additional binding assays were established between the human proteins PD-1-Ig/PD-L2-His (20 & 5 nM, respectively) and CD80-His/PD-L1-Ig (100 & 10 nM, respectively).
Recombinant Proteins: Human PD-1 (25-167) with a C-terminal human Fc domain of immunoglobulin G (Ig) epitope tag [hPD-1 (25-167)-3S-IG] and human PD-L1 (18-239) with a C-terminal His epitope tag [hPD-L1(18-239)-TVMV-His] were expressed in HEK293T cells and purified sequentially by ProteinA affinity chromatography and size exclusion chromatography. Human PD-L2-His and CD80-His was obtained through commercial sources.
Table 1 lists the IC50 values for representative examples of this disclosure measured in the PD-1/PD-L1 Homogenous Time-Resolved Fluorescence (HTRF) binding assay.
With `CCCC[C@H]1C(=O)N(C)[C@@H](CCCC)C(=O)N[C@@H](CC(C)C)C(=O)N[C@H](C(=O)NCC(N)=O)CSCC(=O)N[C@@H](Cc2ccc(O)cc2)C(=O)N(C)[C@@H](C)C(=O)N[C@@H](CC(N)=O)C(=O)N2CCC[C@H]2C(=O)N[C@@H](CNC(=O)C(=O)OC)C(=O)N[C@@H](CC(C)C)C(=O)N2C[C@H](O)C[C@H]2C(=O)N[C@@H](Cc2c[nH]c3ccccc23)C(=O)N[C@@H](CCNC(=O)C(=O)OC)C(=O)N[C@@H](Cc2cn(CC(=O)OC)c3ccccc23)C(=O)N1C` [Compound 3001] ({CH2CO}-Y[NMeA]NP[Dap](Methoxyoxalyl)L[Hyp]W[Dab](Methoxyoxalyl)[Trp(1-CH2CO2Me)][NMeNle][NMeNle]LCG-NH2; thioether N-14), the IC50 was found to be 6.3 nM. Consider `CCCC[C@H]1C(=O)N(C)[C@@H](CCCC)C(=O)N[C@@H](CC(C)C)C(=O)N[C@H](C(=O)NCC(N)=O)CSCC(=O)N[C@@H](Cc2ccc(O)cc2)C(=O)N(C)[C@@H](C)C(=O)N[C@@H](CC(N)=O)C(=O)N2CCC[C@H]2C(=O)N[C@@H](CNC(=O)C(=O)Nc2cc(C)on2)C(=O)N[C@@H](CC(C)C)C(=O)N2C[C@H](O)C[C@H]2C(=O)N[C@@H](Cc2c[nH]c3ccccc23)C(=O)N[C@@H](CCNC(=O)C(=O)Nc2cc(C)on2)C(=O)N[C@@H](Cc2cn(CC(=O)OC)c3ccccc23)C(=O)N1C` [Compound 2004] ({CH2CO}-Y[NMeA]NP[Dap](X10)L[Hyp]W[Dab](X10)[Trp(1-CH2CO2Me)][NMeNle][NMeNle]LCG-NH2; thioether N-14), for which the IC50 stood at 3 nM. As for `CCCC[C@H]1C(=O)N(C)[C@@H](CCCC)C(=O)N[C@@H](CC(C)C)C(=O)N[C@H](C(=O)NCC(N)=O)CSCC(=O)N[C@@H](Cc2ccc(O)cc2)C(=O)N(C)[C@@H](C)C(=O)N[C@@H](CC(N)=O)C(=O)N2CCC[C@H]2C(=O)N[C@@H](CNC(=O)C(=O)O)C(=O)N[C@@H](CC(C)C)C(=O)N2C[C@H](O)C[C@H]2C(=O)N[C@@H](Cc2c[nH]c3ccccc23)C(=O)N[C@@H](CCN)C(=O)N[C@@H](Cc2cn(CC(=O)OC)c3ccccc23)C(=O)N1C` [Compound 1002] ({CH2CO}-Y[NMeA]NP[Dap](Oxalyl)L[Hyp]W[Dab][Trp(1-CH2CO2Me)][NMeNle][NMeNle]LCG-NH2; thioether N-14), the IC50 is 3.1 nM. `CCCC[C@H]1C(=O)N(C)[C@@H](CCCC)C(=O)N[C@@H](CC(C)C)C(=O)N[C@H](C(=O)NCC(N)=O)CSCC(=O)N[C@@H](Cc2ccc(O)cc2)C(=O)N(C)[C@@H](C)C(=O)N[C@@H](CC(N)=O)C(=O)N2CCC[C@H]2C(=O)N[C@@H](CNC(=O)C(=O)O)C(=O)N[C@@H](CC(C)C)C(=O)N2C[C@H](O)C[C@H]2C(=O)N[C@@H](Cc2c[nH]c3ccccc23)C(=O)N[C@@H](CCNC(=O)C(=O)O)C(=O)N[C@@H](Cc2cn(CC(=O)O)c3ccccc23)C(=O)N1C` [Compound 4001] ({CH2CO}-Y[NMeA]NP[Dap](Oxalyl)L[Hyp]W[Dab](Oxalyl)[Trp(1-CH2COOH)][NMeNle][NMeNle]LCG-NH2; thioether N-14) came in with an IC50 of 3.6 nM.

The molecule `CCCC[C@H]1C(=O)N(C)[C@@H](CCCC)C(=O)N[C@@H](CC(C)C)C(=O)N[C@H](C(=O)NCC(N)=O)CSCC(=O)N[C@@H](Cc2ccc(O)cc2)C(=O)N(C)[C@@H](C)C(=O)N[C@@H](CC(N)=O)C(=O)N2CCC[C@H]2C(=O)N[C@@H](CNC(=O)C(=O)Oc2ccccc2)C(=O)N[C@@H](CC(C)C)C(=O)N2C[C@H](O)C[C@H]2C(=O)N[C@@H](Cc2c[nH]c3ccccc23)C(=O)N[C@@H](CCNC(=O)C(=O)Oc2ccccc2)C(=O)N[C@@H](Cc2cn(CC(=O)O)c3ccccc23)C(=O)N1C` [Compound 1001] ({CH2CO}-Y[NMeA]NP[Dap](X1)L[Hyp]W[Dab](X1)[Trp(1-CH2COOH)][NMeNle][NMeNle]LCG-NH2; thioether N-14) returned an IC50 of 5.4 nM.

With `CCCC[C@H]1C(=O)N(C)[C@@H](CCCC)C(=O)N[C@@H](CC(C)C)C(=O)N[C@H](C(=O)NCC(N)=O)CSCC(=O)N[C@@H](Cc2ccc(O)cc2)C(=O)N(C)[C@@H](C)C(=O)N[C@@H](CC(N)=O)C(=O)N2CCC[C@H]2C(=O)N[C@@H](CNC(=O)C(=O)Oc2ccccc2)C(=O)N[C@@H](CC(C)C)C(=O)N2C[C@H](O)C[C@H]2C(=O)N[C@@H](Cc2c[nH]c3ccccc23)C(=O)N[C@@H](CCNC(=O)C(=O)Oc2ccccc2)C(=O)N[C@@H](Cc2cn(CC(=O)OC)c3ccccc23)C(=O)N1C` [Compound 3003] ({CH2CO}-Y[NMeA]NP[Dap](X1)L[Hyp]W[Dab](X1)[Trp(1-CH2CO2Me)][NMeNle][NMeNle]LCG-NH2; thioether N-14), the IC50 stood at 0.64 nM. This IC50 is about 8.4-fold lower than that of the molecule before. For `CCCC[C@H]1C(=O)N(C)[C@@H](CCCC)C(=O)N[C@@H](CC(C)C)C(=O)N[C@H](C(=O)NCC(N)=O)CSCC(=O)N[C@@H](Cc2ccc(O)cc2)C(=O)N(C)[C@@H](C)C(=O)N[C@@H](CC(N)=O)C(=O)N2CCC[C@H]2C(=O)N[C@@H](CNC(=O)C(=O)O)C(=O)N[C@@H](CC(C)C)C(=O)N2C[C@H](O)C[C@H]2C(=O)N[C@@H](Cc2c[nH]c3ccccc23)C(=O)N[C@@H](CCNC(=O)C(=O)O)C(=O)N[C@@H](Cc2cn(CC(=O)OC)c3ccccc23)C(=O)N1C` [Compound 5001] ({CH2CO}-Y[NMeA]NP[Dap](Oxalyl)L[Hyp]W[Dab](Oxalyl)[Trp(1-CH2CO2Me)][NMeNle][NMeNle]LCG-NH2; thioether N-14), the concentration for half-maximal inhibition (IC50) amounted to 2.6 nM. In turn, `CCCC[C@H]1C(=O)N(C)[C@@H](CCCC)C(=O)N[C@@H](CC(C)C)C(=O)N[C@H](C(=O)NCC(N)=O)CSCC(=O)N[C@@H](Cc2ccc(O)cc2)C(=O)N(C)[C@@H](C)C(=O)N[C@@H](CC(N)=O)C(=O)N2CCC[C@H]2C(=O)N[C@@H](CNC(=O)C(=O)Nc2nnc(CC)s2)C(=O)N[C@@H](CC(C)C)C(=O)N2C[C@H](O)C[C@H]2C(=O)N[C@@H](Cc2c[nH]c3ccccc23)C(=O)N[C@@H](CCNC(=O)C(=O)Nc2nnc(CC)s2)C(=O)N[C@@H](Cc2cn(CC(=O)OC)c3ccccc23)C(=O)N1C` [Compound 2008] ({CH2CO}-Y[NMeA]NP[Dap](X2)L[Hyp]W[Dab](X2)[Trp(1-CH2CO2Me)][NMeNle][NMeNle]LCG-NH2; thioether N-14) registered an IC50 of 3.2 nM. `CCCC[C@H]1C(=O)N(C)[C@@H](CCCC)C(=O)N[C@@H](CC(C)C)C(=O)N[C@H](C(=O)NCC(N)=O)CSCC(=O)N[C@@H](Cc2ccc(O)cc2)C(=O)N(C)[C@@H](C)C(=O)N[C@@H](CC(N)=O)C(=O)N2CCC[C@H]2C(=O)N[C@@H](CNC(=O)C(=O)Nc2cc(F)cc(F)c2)C(=O)N[C@@H](CC(C)C)C(=O)N2C[C@H](O)C[C@H]2C(=O)N[C@@H](Cc2c[nH]c3ccccc23)C(=O)N[C@@H](CCNC(=O)C(=O)Nc2cc(F)cc(F)c2)C(=O)N[C@@H](Cc2cn(CC(=O)OC)c3ccccc23)C(=O)N1C` [Compound 2002] ({CH2CO}-Y[NMeA]NP[Dap](X8)L[Hyp]W[Dab](X8)[Trp(1-CH2CO2Me)][NMeNle][NMeNle]LCG-NH2; thioether N-14) displayed an IC50 of 350 nM. With `CCCC[C@H]1C(=O)N(C)[C@@H](CCCC)C(=O)N[C@@H](CC(C)C)C(=O)N[C@H](C(=O)NCC(N)=O)CSCC(=O)N[C@@H](Cc2ccc(O)cc2)C(=O)N(C)[C@@H](C)C(=O)N[C@@H](CC(N)=O)C(=O)N2CCC[C@H]2C(=O)N[C@@H](CNC(=O)C(=O)NCc2ccc(F)cc2)C(=O)N[C@@H](CC(C)C)C(=O)N2C[C@H](O)C[C@H]2C(=O)N[C@@H](Cc2c[nH]c3ccccc23)C(=O)N[C@@H](CCNC(=O)C(=O)NCc2ccc(F)cc2)C(=O)N[C@@H](Cc2cn(CC(=O)OC)c3ccccc23)C(=O)N1C` [Compound 2009] ({CH2CO}-Y[NMeA]NP[Dap](X3)L[Hyp]W[Dab](X3)[Trp(1-CH2CO2Me)][NMeNle][NMeNle]LCG-NH2; thioether N-14) the figure was 1.2 nM.
